Source: PubChem BioAssay (NCI)
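Assay format: 96-well plates, 48-hour exposure. TGI marks complete inhibition of growth.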

How the values were obtained:
Test in all cases: NCI-60 cell line screen, 48 h
A549 NSCLC = system: A549 NSCLC
ACHN renal = system: ACHN renal
CAKI-1 renal = system: CAKI-1 renal
CCRF-CEM leukemia = system: CCRF-CEM leukemia
COLO 205 colon = system: COLO 205 colon
DU-145 prostate = system: DU-145 prostate
EKVX NSCLC = system: EKVX NSCLC
HCC-2998 colon = system: HCC-2998 colon
HCT-116 colon = system: HCT-116 colon
HCT-15 colon = system: HCT-15 colon
HL-60(TB) leukemia = system: HL-60(TB) leukemia
HOP-92 NSCLC = system: HOP-92 NSCLC
HT29 colon = system: HT29 colon
IGROV1 ovarian = system: IGROV1 ovarian
K-562 leukemia = system: K-562 leukemia
KM12 colon = system: KM12 colon
LOX IMVI melanoma = system: LOX IMVI melanoma
M14 melanoma = system: M14 melanoma
MALME-3M melanoma = system: MALME-3M melanoma
MCF7 breast = system: MCF7 breast
MDA-MB-231 breast = system: MDA-MB-231 breast
MDA-MB-435 = system: MDA-MB-435
MOLT-4 leukemia = system: MOLT-4 leukemia
NCI-H23 lung = system: NCI-H23 lung
NCI-H460 lung = system: NCI-H460 lung
NCI-H522 lung = system: NCI-H522 lung
NCI/ADR-RES ovarian = system: NCI/ADR-RES ovarian
OVCAR-3 ovarian = system: OVCAR-3 ovarian
OVCAR-4 ovarian = system: OVCAR-4 ovarian
OVCAR-5 ovarian = system: OVCAR-5 ovarian
OVCAR-8 ovarian = system: OVCAR-8 ovarian
PC-3 prostate = system: PC-3 prostate
RPMI-8226 leukemia = system: RPMI-8226 leukemia
SF-268 CNS = system: SF-268 CNS
SF-295 CNS = system: SF-295 CNS
SK-MEL-2 melanoma = system: SK-MEL-2 melanoma
SK-MEL-28 melanoma = system: SK-MEL-28 melanoma
SK-MEL-5 melanoma = system: SK-MEL-5 melanoma
SK-OV-3 ovarian = system: SK-OV-3 ovarian
SN12C renal = system: SN12C renal
SNB-19 CNS = system: SNB-19 CNS
SR leukemia = system: SR leukemia
SW-620 colon = system: SW-620 colon
T-47D breast = system: T-47D breast
TK-10 renal = system: TK-10 renal
UACC-257 melanoma = system: UACC-257 melanoma
UACC-62 melanoma = system: UACC-62 melanoma
UO-31 renal = system: UO-31 renal

## O=C1CSC2=NC3=C(CSC/C3=C\c3ccc(Cl)cc3)C(c3ccc(Cl)cc3)N12 (stereo not drawn)
A549 NSCLC
  TGI: > 100 µM
ACHN renal
  TGI: > 100 µM
CAKI-1 renal
  TGI: > 100 µM
CCRF-CEM leukemia
  TGI: > 100 µM
COLO 205 colon
  TGI: > 100 µM
DU-145 prostate
  TGI: > 100 µM
EKVX NSCLC
  TGI: > 100 µM
HCC-2998 colon
  TGI: 89.2 µM
HCT-116 colon
  TGI: 29 µM
HCT-15 colon
  TGI: 80.2 µM
HL-60(TB) leukemia
  TGI: > 100 µM
HOP-92 NSCLC
  TGI: 39.9 µM
HT29 colon
  TGI: > 100 µM
IGROV1 ovarian
  TGI: > 100 µM
K-562 leukemia
  TGI: > 100 µM
KM12 colon
  TGI: 79.1 µM
LOX IMVI melanoma
  TGI: 28.7 µM
M14 melanoma
  TGI: > 100 µM
MALME-3M melanoma
  TGI: > 100 µM
MCF7 breast
  TGI: 87.2 µM
MDA-MB-231 breast
  TGI: > 100 µM
MDA-MB-435
  TGI: 66 µM
MOLT-4 leukemia
  TGI: 43.4 µM
NCI-H23 lung
  TGI: > 100 µM
NCI-H460 lung
  TGI: > 100 µM
NCI-H522 lung
  TGI: 36.3 µM
NCI/ADR-RES ovarian
  TGI: > 100 µM
OVCAR-3 ovarian
  TGI: 67 µM
OVCAR-4 ovarian
  TGI: 67.1 µM
OVCAR-5 ovarian
  TGI: > 100 µM
OVCAR-8 ovarian
  TGI: 43.3 µM
PC-3 prostate
  TGI: > 100 µM
RPMI-8226 leukemia
  TGI: > 100 µM
SF-268 CNS
  TGI: > 100 µM
SF-295 CNS
  TGI: 47.6 µM
SK-MEL-2 melanoma
  TGI: 52.3 µM
SK-MEL-28 melanoma
  TGI: 81.9 µM
SK-MEL-5 melanoma
  TGI: 29.3 µM
SK-OV-3 ovarian
  TGI: > 100 µM
SN12C renal
  TGI: 39.2 µM
SNB-19 CNS
  TGI: > 100 µM
SR leukemia
  TGI: 56.3 µM
SW-620 colon
  TGI: 62.3 µM
T-47D breast
  TGI: > 100 µM
TK-10 renal
  TGI: > 100 µM
UACC-257 melanoma
  TGI: 85.9 µM
UACC-62 melanoma
  TGI: > 100 µM
UO-31 renal
  TGI: 29.3 µM
